In patent US20260027221A1, “Targeted Pyrrolobenzodiazapine Conjugates” (BeOne Medicines I GmbH, priority 2023, published 2026):
Several values for one entry are separate records, joined by “and”; a condition that tells them apart may be missing. Identical values can stand only once.

Experiments:
A375 cells = test: Compounds cellular killing in A375 cancer line (Cell Titer-Glo, 6 days); type: cell-based, human; details: 6 days incubation, cell viability by Cell Titer-Glo; for EC50 / Emax: Homo sapiens, A-375, 144 h
Procedure: (§1) A375 (ATCC, CRL-1619). […] The base medium for A375 is DMEM, high glucose, GlutaMAX™ Supplement (Gibco, 10566024). To make the complete growth medium, fetal bovine serum was added to the base mediumat a final concentration of 10% (Gibco, 10099-141C). The cell line was grown in a humidified 5% CO2 atmosphere at 37° C., and was regularly tested for the presence of mycoplasma with MycoAlert™ PLUS Mycoplasma Detection Kit (Lonza, LT07-710).
(§2) Payload direct killing by compounds 1-1 to 1-22 was assessed in A375 and Calu-6 cancer cell lines. Cells were seeded at 1E3/well (A375) 2E3/well (Calu-6) into 96-well plates (Greiner: 655090), 100 μL/well, and incubated at 37° C., 5% CO2, overnight. Fresh growth medium was added containing varying concentrations of compounds, 50 μL/well, and incubated at 37° C., 5% CO2, for 6 days. The cell viability detected by Cell Titer-Glo (Promega, G7573), 70 μL/well. The plates were allowed to incubate at room temperature for 10 minutes to stabilize the luminescent signal. The plates were analyzed with a microplate reader.

Calu-6 cells = test: Compounds cellular killing in Calu-6 cancer line (Cell Titer-Glo, 6 days); type: cell-based, human; details: 6 days incubation, cell viability by Cell Titer-Glo; for EC50 / Emax: Homo sapiens, Calu-6, 144 h
Procedure: as §1, with “Calu-6” for “A375”, “HTB-56).” for “CRL-1619).”, “Eagle's Minimum Essential Medium (ATCC, 30-2003).” for “DMEM, high glucose, GlutaMAX™ Supplement (Gibco, 10566024).”
as §2

| SMILES | EC50 (A375 cells) [nM] | Emax (A375 cells) [%] | EC50 (Calu-6 cells) [nM] | Emax (Calu-6 cells) [%] | A375 Emax (%) (A375 cells) | Calu-6 Emax (%) (Calu-6 cells) |
| --- | --- | --- | --- | --- | --- | --- |
| COc1cc2c(cc1OCCCCCOc1cc3c(cc1OC)C(=O)N1CC4(CC4)C[C@H]1C=N3)N=C[C@@H]1CCCCN1C2=O [Compound 1-16, (S)-7-methoxy-8-((5-(((S)-2-methoxy-12-oxo-6a,7,8,9,10,12-hexahydrobenzo[e]pyrido[1,2-a][1,4]diazepin-3-yl)oxy)pentyl)oxy)-1,11a-dihydro-3H,5H-spiro[benzo[e]pyrrolo[1,2-a][1,4]diazepine-2,1′-cyclopropan]-5-one] | 0.146 | 89.6 | 0.038 | 92.3 |  |  |
| COc1cc2c(cc1OCc1cccc(COc3cc4c(cc3OC)C(=O)N3CC5(CC5)C[C@H]3C=N4)n1)N=C[C@@H]1CC3(CC3)CN1C2=O [Compound 1-17, (11aS,11a″S)-8,8″-((pyridine-2,6-diylbis(methylene))bis(oxy))bis(7-methoxy-1,11a-dihydro-3H,5H-spiro[benzo[e]pyrrolo[1,2-a][1,4]diazepine-2,1′-cyclopropan]-5-one)] | 0.017 | 99.9 | 0.005 | 99.7 |  |  |
| COc1cc2c(cc1OCc1cc(O)cc(COc3cc4c(cc3OC)C(=O)N3CC5(CC5)C[C@H]3C=N4)c1)N=C[C@@H]1CC3(CC3)CN1C2=O [Compound 1-18, (11aS,11a″S)-8,8″-(((5-hydroxy-1,3-phenylene)bis(methylene))bis(oxy))bis(7-methoxy-1,11a-dihydro-3H,5H-spiro[benzo[e]pyrrolo[1,2-a][1,4]diazepine-2,1′-cyclopropan]-5-one)] | 0.398 | 80.3 | 0.126 | 89.8 |  |  |
| COc1cc2c(cc1OC/C=C/CCOc1cc3c(cc1OC)C(=O)N1CC4(CC4)C[C@H]1C=N3)N=C[C@@H]1CC3(CC3)CN1C2=O [Compound 1-19, (11aS,11a″S)-8,8″-(((E)-pent-2-ene-1,5-diyl)bis(oxy))bis(7-methoxy-1,11a-dihydro-3H,5H-spiro[benzo[e]pyrrolo[1,2-a][1,4]diazepine-2,1′-cyclopropan]-5-one)] | 0.165 | 88.7 | 0.052 | 90.6 |  |  |
| COc1cc2c(cc1OCCCCCOc1cc3c(cc1OC)C(=O)N1Cc4ccccc4C[C@H]1C=N3)N=C[C@@H]1CC3(CCN1C2=O)CC3 [Compound 1-20, (S)-2-methoxy-3-((5-(((S)-2-methoxy-12-oxo-6a,9,10,12-tetrahydro-7H-spiro[benzo[e]pyrido[1,2-a][1,4]diazepine-8,1′-cyclopropan]-3-yl)oxy)pentyl)oxy)-7,12-dihydrobenzo[5,6][1,4]diazepino[1,2-b]isoquinolin-14(6aH)-one] | 0.064 | 95.9 | 0.016 | 98.3 |  |  |
| C=C1C[C@H]2C=Nc3cc(OCCNCCOc4cc5c(cc4OC)C(=O)N4CC(=C)C[C@H]4C=N5)c(OC)cc3C(=O)N2C1 [Compound 1-21, (11aS,11a'S)-8,8′-((azanediylbis(ethane-2,1-diyl))bis(oxy))bis(7-methoxy-2-methylene-1,2,3,11a-tetrahydro-5H-benzo[e]pyrrolo[1,2-a][1,4]diazepin-5-one)] | 4.2 | 97.8 | 1.2 | 99.3 |  |  |
| C=C1C[C@H]2C=Nc3cc(OCCN(C)CCOc4cc5c(cc4OC)C(=O)N4CC(=C)C[C@H]4C=N5)c(OC)cc3C(=O)N2C1 [Compound 1-22, (11aS,11a′S)-8,8′-(((methylazanediyl)bis(ethane-2,1-diyl))bis(oxy))bis(7-methoxy-2-methylene-1,2,3,11a-tetrahydro-5H-benzo[e]pyrrolo[1,2-a][1,4]diazepin-5-one)] | 5.5 | 97.3 | 1.3 | 99.2 |  |  |
| COc1cc2c(cc1OCCCCCOc1cc3c(cc1OC)C(=O)N1C=C(C)C[C@H]1C=N3)N=C[C@@H]1CC(C)=CN1C2=O [Ref-1-1, reference compound] |  | 99.8 |  | 99.5 | 99.9% and 99.6% | 99.8% and 99.3% and 93.1% |
